Laboratory results published in PubChem BioAssay (NCI).
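These data come from cells grown in 96-well plates and exposed to compound for 48 hours at five concentrations. TGI: total growth inhibition.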

How the values were obtained:
Assay in all cases: growth of human tumour cells (NCI), 48 h
[1] = test system: MCF7 breast
[2] = test system: SF-539 CNS
[3] = test system: K-562 leukemia
[4] = test system: HT29 colon
[5] = test system: CAKI-1 renal
[6] = test system: OVCAR-4 ovarian
[7] = test system: NCI/ADR-RES ovarian
[8] = test system: KM12 colon
[9] = test system: OVCAR-8 ovarian
[10] = test system: UO-31 renal
[11] = test system: EKVX NSCLC
[12] = test system: A549 NSCLC
[13] = test system: M14 melanoma
[14] = test system: SF-295 CNS
[15] = test system: RXF 393 renal
[16] = test system: SK-MEL-28 melanoma
[17] = test system: NCI-H23 lung
[18] = test system: SK-MEL-2 melanoma
[19] = test system: NCI-H460 lung
[20] = test system: OVCAR-5 ovarian

Measured: TGI

NCCCc1nonc1C(=O)O
> 100 µM: [1] | [2] | [3] | [4] | [5] | [6] | [7] | [8] | [9] | [10] | [11] | [12] | [13] | [14] | [15] | [16] | [17] | [18] | [19] | [20]

COc1nc2c(c(=O)[nH]1)N=C(c1ccc([N+](=O)[O-])cc1)CC(c1ccccc1)N2 (configuration not stated)
> 100 µM: [1] | [2] | [3] | [4] | [5] | [6] | [7] | [8] | [9] | [10] | [11] | [12] | [13] | [14] | [15] | [16] | [17] | [18] | [19] | [20]

CC(=O)OC1=C(c2ccccc2)S(=O)(=O)c2ccccc21
> 100 µM: [1] | [2] | [3] | [4] | [5] | [6] | [7] | [8] | [9] | [10] | [11] | [12] | [13] | [14] | [15] | [16] | [17] | [18] | [19] | [20]

O=c1oc2cc(O)ccc2c(O)c1C(c1ccc(/C=C/c2ccccc2)cc1)c1c(O)c2ccc(O)cc2oc1=O
> 100 µM: [1] | [2] | [3] | [4] | [5] | [6] | [7] | [8] | [9] | [10] | [11] | [12] | [13] | [14] | [15] | [17] | [18] | [19] | [20]
60.5 µM: [16]

CCOC(=O)c1c2ccccc2n2c(=O)n(-c3ccccc3)nnc12
47.3 µM: [3]
> 100 µM: [1] | [2] | [5] | [6] | [7] | [8] | [9] | [10] | [11] | [12] | [13] | [15] | [16] | [17] | [18] | [19] | [20]
> 49.1 µM: [14]

O=[N+]([O-])C1=Cc2c(O)ccc(O)c2C2c3ccccc3NC12 (configuration not stated)
37.5 µM: [12]
34.1 µM: [20]
28.2 µM: [13]
15.8 µM: [17]
> 100 µM: [3]
31.5 µM: [14]
24.4 µM: [8]
33.5 µM: [19]
8.99 µM: [5]
30.1 µM: [6]
63 µM: [2]
28.6 µM: [11]
> 42.6 µM: [9]
26.4 µM: [4] | [15]
40.1 µM: [18]
43 µM: [16]
51 µM: [7]
11.8 µM: [1] | [10]

N#Cc1nc(CCC(C(=O)O)N2C(=O)c3ccccc3C2=O)oc1N (configuration not stated)
> 100 µM: [1] | [2] | [3] | [4] | [5] | [6] | [7] | [8] | [9] | [10] | [11] | [12] | [13] | [14] | [15] | [16] | [17] | [18] | [19] | [20]

CCOC(=O)c1sc(N)nc1N1CCCC1
> 100 µM: [1] | [2] | [3] | [4] | [5] | [6] | [7] | [8] | [9] | [10] | [11] | [12] | [13] | [14] | [15] | [16] | [17] | [18] | [19] | [20]

COc1cccc(O)c1-c1cc(=O)c2c(O)c(OC)c(OC)c(OC)c2o1
91 µM: [4]
71.7 µM: [7]
77.7 µM: [1]
85.5 µM: [17]
> 100 µM: [2] | [3] | [5] | [6] | [9] | [10] | [11] | [12] | [16] | [20]
42.9 µM: [15]
52.1 µM: [19]
77.8 µM: [8]
52.4 µM: [18]
76.6 µM: [14]
68.4 µM: [13]

Cc1ccc(Nc2nc3ccccc3nc2NS(=O)(=O)c2ccc(N)cc2)cc1
65.5 µM: [10]
71 µM: [6]
81.9 µM: [18]
> 100 µM: [1] | [2] | [3] | [4] | [5] | [7] | [9] | [11] | [12] | [13] | [14] | [15] | [16] | [19] | [20]
16.2 µM: [17]
94.3 µM: [8]

O=C(NNC(=O)c1cc2ccccc2[nH]1)c1cc2ccccc2[nH]1
> 100 µM: [1] | [2] | [3] | [4] | [5] | [6] | [7] | [8] | [9] | [10] | [11] | [12] | [13] | [14] | [15] | [16] | [18] | [19] | [20]

O=C1OCC2=C1C(c1ccc(Cl)cc1)c1cc3c(cc1O2)OCO3 (configuration not stated)
> 25.1 µM: [2]
10.8 µM: [5]
> 100 µM: [3] | [4] | [6] | [8] | [9] | [10] | [11] | [12] | [13] | [14] | [15] | [16] | [17] | [18] | [19] | [20]
> 31.2 µM: [7]
> 27.2 µM: [1]

C[C@H]1CC(=O)C[C@@H]2CC[C@@H]3[C@H](CC[C@]4(C)C(OC(=O)c5cccc6c(=O)c7ccccc7[nH]c56)CC[C@@H]34)[C@]21C (some centres not stated)
86 µM: [5]
61 µM: [7]
95.1 µM: [10]
75.9 µM: [9]
> 100 µM: [1] | [2] | [3] | [4] | [6] | [8] | [11] | [12] | [13] | [14] | [15] | [16] | [17] | [18] | [19] | [20]

Cc1nnc(NS(=O)(=O)c2ccc(N=Nc3c(O)c(C(=O)O)cc4ccccc34)cc2)s1
> 100 µM: [1] | [2] | [3] | [4] | [5] | [6] | [7] | [8] | [9] | [10] | [11] | [12] | [13] | [14] | [15] | [16] | [17] | [18] | [19] | [20]

COc1ccc(Cc2nc3cc(C(F)(F)F)ccc3n2C[C@@H]2CCCN3CCCCC23)cc1 (some centres not stated)
7.14 µM: [13]
22.3 µM: [15]
30.7 µM: [7]
12.3 µM: [14]
25.6 µM: [5]
15.4 µM: [4]
27.7 µM: [11]
30.1 µM: [18]
31.1 µM: [19]
26.2 µM: [1]
> 64.8 µM: [3]
27.4 µM: [8]
28.1 µM: [2]
27.8 µM: [20]
24.7 µM: [12]
30.3 µM: [9]
27.6 µM: [16]
30.9 µM: [17]
25.1 µM: [6]
0.166 µM: [10]

CC(=O)C1=C(C)N2C(=NC3=C(CCc4ccccc43)C2c2ccc(Cl)cc2)S1 (configuration not stated)
> 56.2 µM: [3]
> 100 µM: [1] | [2] | [4] | [5] | [6] | [7] | [8] | [9] | [10] | [11] | [12] | [13] | [14] | [15] | [16] | [17] | [18] | [19] | [20]

C[N+](C)(C)CC(=O)N/N=C\c1c(O)ccc2ccccc12
70.5 µM: [19]
> 100 µM: [1] | [2] | [3] | [4] | [5] | [6] | [7] | [8] | [9] | [10] | [11] | [12] | [13] | [14] | [16] | [17] | [18] | [20]
82.5 µM: [15]

CCOC(=O)c1cn2c(n1)sc1cc([N+](=O)[O-])ccc12
> 100 µM: [1] | [2] | [3] | [4] | [5] | [6] | [7] | [8] | [9] | [10] | [11] | [12] | [13] | [14] | [15] | [16] | [17] | [18] | [19] | [20]

NC(C(=O)O)C(O)c1cnc[nH]1 (configuration not stated)
> 100 µM: [1] | [2] | [3] | [4] | [5] | [6] | [7] | [8] | [9] | [11] | [12] | [13] | [14] | [15] | [16] | [17] | [18] | [19] | [20]
